{"source": "patent US20050203011A1", "about": "“Mitigating symptoms and behaviors of substance abuse by modulating GDNF or BDNF pathway activity” (The Regents of the University of California, priority 2003, published 2005)", "molecules": {"B1": {"name": "GDNF: Human glial-cell line derived neurotrophic factor (protein)", "chain": "SPDKQMAVLPRRERNRQAAAANPENSRGKGRRGQRGKNRGCVLTAIHLNVTDLGLGYETKEELIFRYCSGSCDAAETTYDKILKNLSRNRRLVSDKVGQACCRPIAFDDDLSFLDDNLVYHILRKHSAKRCGCI"}}, "key": {"Trk receptor": {"molecular_target": "T1, Trk receptor (Rattus norvegicus, UniProt Q63604)", "T1 construct": "from tissue; host or cells: striatal slices (dorsal striatum and NAc) of Sprague-Dawley rats", "T1 sequence (Q63604 32-821)": "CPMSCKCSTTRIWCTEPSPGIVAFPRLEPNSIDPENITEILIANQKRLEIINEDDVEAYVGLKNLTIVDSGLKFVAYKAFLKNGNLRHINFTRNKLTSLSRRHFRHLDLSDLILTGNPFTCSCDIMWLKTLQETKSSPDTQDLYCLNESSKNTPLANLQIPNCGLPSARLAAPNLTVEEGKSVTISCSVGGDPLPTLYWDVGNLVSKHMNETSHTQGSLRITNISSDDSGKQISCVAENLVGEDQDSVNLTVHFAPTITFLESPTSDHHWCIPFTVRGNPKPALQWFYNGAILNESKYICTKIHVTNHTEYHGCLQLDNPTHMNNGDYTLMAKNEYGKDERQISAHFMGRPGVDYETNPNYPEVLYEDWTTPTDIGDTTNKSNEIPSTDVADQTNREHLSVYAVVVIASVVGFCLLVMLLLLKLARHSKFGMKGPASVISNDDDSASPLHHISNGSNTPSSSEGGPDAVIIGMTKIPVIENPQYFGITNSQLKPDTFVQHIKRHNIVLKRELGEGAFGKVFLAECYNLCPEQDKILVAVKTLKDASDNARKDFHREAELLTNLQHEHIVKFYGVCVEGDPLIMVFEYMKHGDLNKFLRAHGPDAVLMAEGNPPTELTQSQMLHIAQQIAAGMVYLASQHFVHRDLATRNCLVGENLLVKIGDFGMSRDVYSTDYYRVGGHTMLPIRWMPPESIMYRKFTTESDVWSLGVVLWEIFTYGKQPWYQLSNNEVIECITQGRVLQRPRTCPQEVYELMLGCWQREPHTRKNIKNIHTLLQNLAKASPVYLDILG", "test": "Trk phosphorylation in striatal slices (Western blot)", "format": "cell-based", "settings": "1 μM Tat-RACK1 together with 200 nM K252a, 4 hours", "description": "Coronal striatal slices ([…]) were prepared from 3-4 week old male Sprague-Dawley rats. Slices were maintained for at least 1 hour in artificial cerebrospinal fluid (αCSF) containing (in mM): 126 NaCl, 1.2 KCl, 1.2 NaH2PO4, 0.01 MgCl2, 2.4 CaCl2, 18 NaHCO3 and 11 glucose saturated with 95% O2/5% CO2 at […]. […] Brain homogenates were prepared after in vivo protein transduction. Adult C57B1/6 mice were injected i.p. with vehicle or 4 mg/kg of Tat-RACK1. Four hours later, brains were immediately removed and homogenized and protein extracts were prepared as described above.\nSamples ([…]) were resolved on a 10% SDS-PAGE and transferred to a nitrocellulose membrane. Membranes were probed with the appropriate antibodies and immunoreactivity was detected with enhanced chemilluminescence (Amersham Bioscience) and processed using the STORM system (Molecular Dynamic)."}, "[1]": {"system": "C57B1/6 mice or BDNF+/+ and BDNF± mice", "test": "Ethanol self-administration in mice (two-bottle choice)", "format": "in vivo, mouse", "settings": "for ethanol consumption: wildtype mice", "description": "Voluntary ethanol intake in singly-housed adult male C57B1/6 mice or BDNF+/+ and BDNF±mice was established by placing a bottle containing 10% ethanol in tap water (v/v) on the home cage next to an identical bottle filled with tap water for at least 1 month. Only subjects that consumed at least 40% of their total fluid volume as ethanol were included in these studies. All injections (PBS/10% glycerol vehicle, Tat-KEP27, K252a and/or Tat-RACK1) were conducted at 15:00 hours; ethanol and water intake were measured 18 hours later at 09:00 hours. Treatments were tested using a within-subjects design; subjects received one or two injections per week. Chemicals were administered in injection volumes of 1-3 ml per 100 g body weight. The effect of a deprivation period on consumption was tested by allowing mice continuous access to a bottle of 20% ethanol in tap water and a bottle of tap water on the home cage for 2 weeks. The ethanol bottle was removed for 2 weeks. Intake of 20% ethanol and of water was measured for 4 days after the ethanol was reintroduced."}, "[2]": {"settings": "in vivo; cited from earlier work"}, "ERK1/2": {"system": "ERK1/2", "test": "ERK1/2 phosphorylation in SHSY5Y cells", "format": "cell-based, human", "settings": "10 μM ibogaine 3 hours, U0126 20 μM, PD98059 40 μM 30 minutes or PI-PLC 0.3 unit/ml 1 h pre-incubation", "description": "ERK2 and pERK1/2 were detected by Western blot analysis with anti-ERK2 and pERK1/2 antibodies respectively. Line-graph depicts the mean ratio (pERK2/ERK2)±SD of 3 experiments. […] Panel C: Cells were pre-incubated with 0.3 unit/ml PI-PLC for 1 h (lane 3)."}, "BDNF [3]": {"system": "BDNF", "test": "BDNF expression in vivo (RT-PCR of tissue punches)", "parameters": "species or system mouse", "settings": "C57 mice, voluntary consumption of 10% ethanol for 2 weeks", "text": "The primers for NGF were designed as follows: […]"}, "[4]": {"system": "tyrosine hydroxylase (TH)", "test": "Tyrosine hydroxylase (TH) protein levels in SHSY5Y cells", "format": "cell-based, human", "description": "Panel A: SHSY5Y cells were treated with different concentrations (0, 10, 25, and 100 mM) of ethanol for 24 hours. TH protein levels and control Actin levels were determined by Western blot analysis. Histogram depicts the mean ratio (TI/actin)±SD of 3 experiments. Panel B: Cells were treated with media (control), 100 ng/ml of GDNF for 12 h (lane 1), 100 mM ethanol for 24 hours (lane 2), or 100 mM ethanol for 24 hours to which 100 ng/ml GDNF was added for the last 12 hours (lane 3). The cells were lysed for Western blot analysis. Histogram depicts the mean ratio (TH/actin)±SD of 3 experiments. […] Histogram depicts the mean ratio (TH/actin)±SD of 3 experiments."}, "BDNF [5]": {"system": "BDNF", "test": "BDNF expression in primary hippocampal cultures (RT-PCR)", "format": "cell-based, rat", "settings": "primary hippocampal neurons", "description": "Sprague-Dawley rats (P0) were decapitated and hippocampi were dissected bilaterally. Cells were dissociated by enzyme digestion with papain followed by brief mechanical trituration and plated on poly-D-lysine treated flasks. Cells were plated (1×10^6 cells/chamber) and maintained in Neurobasal media supplemented with B27, penicillin, streptomycin and Glutamax-1 and maintained in culture for 3 weeks. Following treatment, total RNAs were isolated using Trizol reagent and reverse transcribed (RT) using the Reverse Transcription System kit. The RT products were used for analysis of the expression of BDNF and the control gene […] (GPDH) by polymerase chain reaction (PCR) described in (Yaka et al. (2003) J. Biol. Chem. 278: 9630-9638). The PCR products were photographed by Eagle Eye II (Stratagene), and quantified by using NIH Image 1.61."}, "[6]": {"system": "primary hippocampal neurons", "test": "RACK1 / Tat-RACK1 nuclear localization in primary hippocampal neurons (confocal microscopy)", "format": "cell-based, rat", "settings": "100 mM ethanol 30 minutes", "description": "Primary hippocampal neurons were washed in cold PBS containing 0.1% Triton X-100, fixed in cold methanol and blocked in PBS containing 0.1% Triton X-100 and 3% Normal Goat Serum. lrmunostaining was performed with monoclonal monoclonal IgG HA antibodies (1:150). Staining was detected with anti FITC antibodies (1:500). Nuclei were detected with the nuclear marker TOTO-3 (1: 10000). Slides were viewed with a laser scanning confocal microscope (Zeiss LSM 510 Meta). Z-field images were processed by obtaining the middle Z field sections using LSM 5 Image Browse (Scion Corporation) and Adobe Photoshop (Adobe Systems Inc.). For immunocytochemistry used to detect the presence of Tat-RACK1 in the brain, C57 mice were injected i.p. with vehicle or 4 mg/kg Tat-RACK1. Animals were decapitated 4 hours post injection and brains were quickly removed and frozen at −50° C. in isopentane. Slide-mounted saggital striatal sections ([…]) were immersed for 10 minutes in cold (−20° C.) mixture of 75% methanol and 25% acetone, re-hydrated, rinsed in PBS and incubated in 10% normal donkey serum. Rat monoclonal anti-HA antibody (1:2,000 in PBS) was applied overnight in a humid chamber. […]"}, "NGF": {"system": "NGF", "settings": "C57 mice, voluntary ethanol consumption, striatum and PFC", "description": "Adult male C57B1/6 mice were decapitated 3 hours after the start of the dark cycle, for mice with access to ethanol, or 6 hours following i.p. injection of vehicle or Tat-RACK1 (4 mg/kg), for naïve animals. Brains were rapidly removed and bilateral tissue punches of the striatum and PFC were frozen in liquid nitrogen. BDNF, NGF and GPDH expression were analyzed by RT-PCR as described above for hippocampal cultures. The primers for NGF were designed as follows: […]"}, "Long Evans rats": {"system": "Long Evans rats", "test": "Ethanol self-administration in rats after intracerebroventricular (i.c.v.) microinjections", "format": "in vivo, rat", "settings": "i.c.v. microinjection, intake 24 hours after treatment", "description": "Adult male Long Evans rats were trained in the two-bottle choice ethanol self-administration procedure as described above for mice. Three weeks after ethanol exposure commenced, a 26 gauge cannula was placed into the right lateral ventricle (stereotaxic coordinates AP: −0.8, ML: −1.4, DV: −3.6, relative to bregma) of anesthetized subjects. Three weeks later, subjects received weekly i.c.v. microinjections of vehicle, Tat-RACK1, or the Tat-peptide (injection volume […]) at approximately 15:30, or 3.5 hours before lights out. Intake was measured 24 hours after treatment. All subjects received vehicle and Tat-RACK1 injections; a subset of subjects was also injected with the Tat-peptide. Cannula locations were verified histologically at the conclusion of the experiment."}, "BDNF [7]": {"system": "BDNF", "test": "BDNF secretion from dissociated hippocampal neurons (ELISA)", "format": "cell-based, rat", "settings": "1 μM, 6 hours", "description": "BDNF or NGF secretion was measured in media from dissociated hippocampal neurons or from striatal slices using Emax ImmunoAssay according to (Balkowiec and Katz (2000) J. Neurosci., 20: 7417-7423)) and (Heaton et al. (2003) Brain Res. Dev. Brain Res. 140: 237-252), respectively. BDNF or NGF concentrations were interpolated from the standard curves (linear range of 7.8-500 pg/ml)."}}, "data": [{"molecule": "COC(=O)[C@@]1(O)C[C@H]2O[C@]1(C)n1c3ccccc3c3c4c(c5c6ccccc6n2c5c31)C(=O)NC4", "note": "[K252a]", "values": [{"measurement": "Tat-RACK1-induced Trk phosphorylation", "setting": "Trk receptor", "result": "reduced"}, {"measurement": "reduction in ethanol intake by Tat-RACK1, co-injection with K252a", "setting": "[1]; mice, Tat-RACK1 4 mg/kg + K252a", "result": "prevented the reduction in ethanol intake"}, {"measurement": "ethanol consumption", "setting": "[1]; K252a 5 mg/kg i.p.", "result": "increased"}, {"measurement": "ethanol consumption", "setting": "[1]; K252a 25 mg/kg i.p.", "result": "increased"}]}, {"molecule": "CC[C@H]1C[C@H]2C[C@H]3c4[nH]c5ccc(O)cc5c4CCN(C2)[C@@H]13", "note": "[Noribogaine]", "values": [{"measurement": "metabolite detection after ibogaine administration", "setting": "[2]", "result": "detected at high concentrations within 24 hours after administration"}]}, {"molecule": "COc1cccc(-c2cc(=O)c3ccccc3o2)c1N", "note": "[PD98059]", "values": [{"measurement": "ERK1/2 phosphorylation induced by ibogaine", "setting": "ERK1/2", "result": "blocked"}]}, {"molecule": "N#CC(=C(/N)Sc1ccccc1N)/C(C#N)=C(\\N)Sc1ccccc1N", "note": "[U0126]", "values": [{"measurement": "ERK1/2 phosphorylation induced by ibogaine", "setting": "ERK1/2", "result": "blocked"}]}, {"molecule": "CCO", "note": "[ethanol]", "values": [{"measurement": "expression levels of BDNF in the prefrontal cortex (PFC)", "setting": "BDNF [3]", "result": "but not the prefrontal cortex"}, {"measurement": "expression levels of BDNF in the striatum", "setting": "BDNF [3]", "result": "significantly increased"}, {"measurement": "ethanol concentration resulting in an increase in TH immunoreactivity (as low as)", "setting": "[4]", "result": 10, "unit": "mM"}, {"measurement": "protein level of TH", "setting": "[4]; ethanol 24 hours, dose-dependent", "result": "significant increase"}, {"measurement": "ethanol concentrations (as low as) that increased BDNF expression", "setting": "BDNF [5]; 0.5 hours", "result": "10 to 25", "unit": "mM"}, {"measurement": "expression levels of BDNF", "setting": "BDNF [5]; acute ethanol, dose- and time-dependent", "result": "increased"}, {"measurement": "BDNF expression", "setting": "BDNF [5]; continuous ethanol 24 or 48 hours", "result": "reduced BDNF expression to below basal levels"}, {"measurement": "RACK1 nuclear translocation", "setting": "[6]", "result": "translocation of RACK1 into the nucleus"}, {"measurement": "expression of NGF", "setting": "NGF", "result": "no change"}]}, {"molecule": "YGRKKRRQRRR [Tat-peptide]", "values": [{"measurement": "ethanol intake", "setting": "Long Evans rats", "result": "no effect"}, {"measurement": "secretion of BDNF", "setting": "BDNF [7]", "result": "no change"}]}, {"molecule": "B1", "values": [{"measurement": "ethanol-induced increase in TH immunoreactivity", "setting": "[4]; 100 mM ethanol 24 hours, GDNF 100 ng/ml or ibogaine 10 μM added for last 12 hours", "result": "inhibited"}]}]}
